Tests used:
[1] = tested on: MOLT-4
Summary of the method: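 Sulforhodamine B staining of TCA-fixed cellular protein was the read-out, following 48 h compound exposure at 37 °C. Plates were pre-incubated 24 h before dosing, and five concentrations (routinely 10^−4 to 10^−8 molar) were tested in duplicate with time-zero and untreated controls. Values derive from test/control percentage growth relative to time-zero mass.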

[2] = tested on: A549/ATCC; assay: NCI 60 cell line panel screen (SRB); format: cell-based, human
[3] = tested on: EKVX; assay: NCI 60 cell line panel screen (SRB); format: cell-based, human
[4] = tested on: NCI-H322M; format: cell-based
[5] = tested on: NCI-H522; assay: NCI 60 cell line panel screen (SRB); format: cell-based, human
[6] = tested on: HT29; assay: NCI 60 cell line panel screen (SRB); format: cell-based, human
[7] = tested on: SF-539; assay: NCI 60 cell line panel screen (SRB); format: cell-based, human
[8] = tested on: UACC-257; assay: NCI 60 cell line panel screen (SRB); format: cell-based, human
[9] = tested on: IGROVI; assay: NCI 60 cell line panel screen (SRB); format: cell-based, human
[10] = tested on: OVCAR-5; assay: NCI 60 cell line panel screen (SRB); format: cell-based, human
[11] = tested on: 786-0; assay: NCI 60 cell line panel screen (SRB); format: cell-based, human
[12] = tested on: TK-10; assay: NCI 60 cell line panel screen (SRB); format: cell-based, human
[13] = tested on: UO-31; assay: NCI 60 cell line panel screen (SRB); format: cell-based, human
[14] = tested on: MDA-MB231/ATCC; assay: NCI 60 cell line panel screen (SRB); format: cell-based, human
[15] = tested on: HS 578T; assay: NCI 60 cell line panel screen (SRB); format: cell-based, human
[16] = tested on: MDA-MB-435; assay: NCI 60 cell line panel screen (SRB); format: cell-based, human
[17] = tested on: T-47D; assay: NCI 60 cell line panel screen (SRB); format: cell-based, human; details: T-47D (Breast Cancer)

`CC1CCC2C(C)C(CC(CO)CC3OC4OC5(C)CCC6C(C)CCC(C3C)C46OO5)OC3OC4(C)CCC1C32OO4` (stereo not drawn) [Compound 4, bis-trioxane primary alcohol] was tested, and the “concentration for cytotoxicity (percentage growth −50)” value [1] was “greater than 10^−4 M”, the Log10GI50 ([1]; Leukemia, MOLT-4) was −7.92 and the Log10LC50 ([1]; MOLT-4 (Leukemia), LC50: PG=−50) was >−4.00 log10M. For the same molecule, the Log10TGI50 ([1]; MOLT-4 (Leukemia), TGI: PG=0) was >−4.00 log10M, the Log10LC50 ([2]; A549/ATCC (Non-Small Cell Lung Cancer), LC50: PG=−50) was −4.11 log10M and the Log10TGI50 ([2]; A549/ATCC (Non-Small Cell Lung Cancer), TGI: PG=0) was −4.71 log10M. It also gave a Log10GI50 ([2]; Non-Small Cell Lung Cancer, A549/ATCC) of −7.29, a Log10LC50 ([3]; EKVX (Non-Small Cell Lung Cancer), LC50: PG=−50) of −4.36 log10M and a Log10TGI50 ([3]; EKVX (Non-Small Cell Lung Cancer), TGI: PG=0) of −4.77 log10M. It also gave a Log10GI50 ([3]; Non-Small Cell Lung Cancer, EKVX) of −7.12, a Log10LC50 ([4]; NCI-H322M (Non-Small Cell Lung Cancer), LC50: PG=−50) of −4.29 log10M and a Log10TGI50 ([4]; NCI-H322M (Non-Small Cell Lung Cancer), TGI: PG=0) of −4.63 log10M. The Log10GI50 ([4]; Non-Small Cell Lung Cancer, NCI-H322M) was −4.97, the Log10TGI50 ([5]; NCI-H522 (Non-Small Cell Lung Cancer), TGI: PG=0) was −4.88 log10M and the Log10LC50 ([5]; NCI-H-522 (Non-Small Cell Lung Cancer), LC50: PG=−50) was −4.40 log10M. For the same molecule, the Log10GI50 ([5]; Non-Small Cell Lung Cancer, NCI-H522) was −7.53, the Log10GI50 ([6]; Colon Cancer, HT29) was −7.75 and the Log10LC50 ([6]; HT29 (Colon Cancer), LC50: PG=−50) was >−4.00 log10M. It also gave a Log10TGI50 ([6]; HT29 (Colon Cancer), TGI: PG=0) of −4.67 log10M, a Log10GI50 ([7]; CNS Cancer, SF-539) of −7.05 and a Log10LC50 ([7]; SF-539 (CNS Cancer), LC50: PG=−50) of −4.34 log10M. The Log10TGI50 ([7]; SF-539 (CNS Cancer), TGI: PG=0) was −4.72 log10M, the Log10GI50 ([8]; Melanoma, UACC-257) was −7.31 and the Log10LC50 ([8]; UACC-257 (Melanoma), LC50: PG=−50) was −4.30 log10M. The Log10TGI50 ([8]; UACC-257 (Melanoma), TGI: PG=0) was −4.71 log10M, the Log10LC50 ([9]; IGROVI (Ovarian Cancer), LC50: PG=−50) was −4.32 log10M and the Log10TGI50 ([9]; IGROVI (Ovarian Cancer), TGI: PG=0) was −4.68 log10M. For the same molecule, the Log10GI50 ([9]; Ovarian Cancer, IGROVI) was −5.36, the Log10LC50 ([10]; OVCAR-5 (Ovarian Cancer), LC50: PG=−50) was −4.54 log10M and the Log10TGI50 ([10]; OVCAR-5 (Ovarian Cancer), TGI: PG=0) was −6.42 log10M. For the same molecule, the Log10GI50 ([10]; Ovarian Cancer, OVCAR-5) was −7.79, the Log10LC50 ([11]; 786-0 (Renal Cancer), LC50: PG=−50) was −4.31 log10M and the Log10TGI50 ([11]; 786-0 (Renal Cancer), TGI: PG=0) was −4.83 log10M. The Log10GI50 ([11]; Renal Cancer, 786-0) was −7.48, the Log10GI50 ([12]; Renal Cancer, TK-10) was −6.60 and the Log10LC50 ([12]; TK-10 (Renal Cancer), LC50: PG=−50) was −4.38 log10M. For the same molecule, the Log10TGI50 ([12]; TK-10 (Renal Cancer), TGI: PG=0) was −4.81 log10M, the Log10GI50 ([13]; Renal Cancer, UO-31) was −7.46 and the Log10LC50 ([13]; UO-31 (Renal Cancer), LC50: PG=−50) was −5.14 log10M. The Log10TGI50 ([13]; UO-31 (Renal Cancer), TGI: PG=0) was −5.77 log10M, the Log10GI50 ([14]; Breast Cancer, MDA-MB231/ATCC) was −5.40 and the Log10LC50 ([14]; MDA-MB231/ATCC (Breast Cancer), LC50: PG=−50) was >−4.00 log10M. The Log10TGI50 ([14]; MDA-MB231/ATCC (Breast Cancer), TGI: PG=0) was −4.33 log10M, the Log10GI50 ([15]; Breast Cancer, HS 578T) was −4.82 and the Log10LC50 ([15]; HS 578T (Breast Cancer), LC50: PG=−50) was >−4.00 log10M. The Log10TGI50 ([15]; HS 578T (Breast Cancer), TGI: PG=0) was >−4.00 log10M, the Log10GI50 ([16]; Breast Cancer, MDA-MB-435) was −7.50 and the Log10LC50 ([16]; MDA-MB-435 (Breast Cancer), LC50: PG=−50) was −4.30 log10M. The Log10TGI50 ([16]; MDA-MB-435 (Breast Cancer), TGI: PG=0) was −4.78 log10M, the Log10LC50 ([17]; LC50: PG=−50) was −4.17 log10M and the Log10TGI50 ([17]; TGI: PG=0) was −4.73 log10M.

Source: patent US7417156B2, “Orally active, antimalarial, anticancer, artemisinin-derived trioxane dimers” (Johns Hopkins University, priority 2002, dated 2008)
